Source: ChEMBL document CHEMBL3400038, “Synthesis and evaluation of benzosuberone embedded with 1,3,4-oxadiazole, 1,3,4-thiadiazole and 1,2,4-triazole moieties as new potential anti proliferative agents” (2015)

Experiments:
Format in all cases: functional
[1] = test system: HeLa; assay: Antiproliferative activity against human HeLa cells after 48 hrs by SRB assay
[2] = Antiproliferative activity against human PANC1 cells after 48 hrs by SRB assay; details: PANC-1, 48 h
[3] = test system: MDA-MB-231; assay: Antiproliferative activity against human MDA-MB-231 cells after 48 hrs by SRB assay; details: MDA-MB-231, 48 h
[4] = test system: A549; assay: Antiproliferative activity against human A549 cells after 48 hrs by SRB assay; details: A549, 48 h

SMILES | GI50 [1] [nM] | GI50 [2] [nM] | GI50 [3] [nM] | GI50 [4] [nM]
Cc1cc2c(cc1C)C(Cl)=C(c1nnc(S)n1-c1ccccc1)CCC2 | 1160 | 2650 | 2640 | 1490
Cc1cc2c(cc1C)C(Cl)=C(c1nnc(-c3ccc(F)cc3)o1)CCC2 | 6420 | 520 | 1400 | 2810
COc1ccc(C[C@@H](O)c2cc(OC)c(OC)c(OC)c2)cc1O [COMBRETASTATIN] | 10 | 20 | 19 | 10
Cc1cc2c(cc1C)C(Cl)=C(c1nnc(-c3cccc(I)c3)o1)CCC2 | 4460 | 4120 | 2670 | 2780
Cc1cc2c(cc1C)C(Cl)=C(c1nnc(Nc3ccccc3)s1)CCC2 | 4920 | 3660 | 5780 | 4780
COC(=O)Nc1nc2cc(C(=O)c3cccs3)ccc2[nH]1 [NOCODAZOLE] | 15 | < 10 | 17 | 20
S=c1[nH]nc(C2=C(Cl)c3ccccc3CCC2)o1 | 981 | 3430 | 1010 | 4960
ClC1=C(c2nnc(-c3cccc(I)c3)o2)CCCc2ccccc21 | 4100 | 2370 | 4940 | 2560
COc1cc2c(c(OC)c1OC)-c1ccc(OC)c(=O)cc1[C@@H](NC(C)=O)CC2 [COLCHICINE] | 40 | 10 | < 10 | 30
Cc1cc2c(cc1C)C(Cl)=C(c1nnc(-c3cccc(C(F)(F)F)c3)o1)CCC2 | 1570 | 794 | 2460 | 1970
O=[N+]([O-])c1ccc(-c2nnc(C3=C(Cl)c4ccccc4CCC3)o2)cc1 | 1320 | 3980 | 3280 | 2610
O=C(NNC(=S)Nc1ccccc1)C1=C(Cl)c2ccccc2CCC1 | 3870 | 5850 | 2460 | 4880
Sc1nnc(C2=C(Cl)c3ccccc3CCC2)n1-c1ccccc1 | 5500 | 3510 | 4930 | 3490
Cc1cc2c(cc1C)C(Cl)=C(c1n[nH]c(=S)o1)CCC2 | 4440 | 2460 | 918 | 3270
COc1cc(-c2nnc(C3=C(Cl)c4cc(C)c(C)cc4CCC3)o2)cc(OC)c1OC | 562 | 1880 | 956 | 1260
COc1cccc2c1C(=O)c1c(O)c3c(c(O)c1C2=O)C[C@@](O)(C(=O)CO)C[C@@H]3O[C@H]1C[C@H](N)[C@H](O)[C@H](C)O1 [DOXORUBICIN] | < 10 | < 10 | 20 | < 10
Cc1ccc(-c2nnc(C3=C(Cl)c4ccccc4CCC3)o2)cc1 | 79 | 6810 | 1400 | 3420
ClC1=C(c2nnc(-c3ccccc3)o2)CCCc2ccccc21 | 3220 | 675 | 1970 | 2270
ClC1=C(c2nnc(Nc3ccccc3)s2)CCCc2ccccc21 | 1320 | 158 | 947 | 2350
CC(=O)O[C@H]1C(=O)[C@@]2(C)[C@H]([C@H](OC(=O)c3ccccc3)[C@]3(O)C[C@H](OC(=O)[C@H](O)[C@@H](NC(=O)c4ccccc4)c4ccccc4)C(C)=C1C3(C)C)[C@]1(OC(C)=O)CO[C@@H]1C[C@@H]2O [PACLITAXEL] | 20 | 12 | < 10 | < 10
COc1ccc([N+](=O)[O-])c(-c2nnc(C3=C(Cl)c4cc(C)c(C)cc4CCC3)o2)c1OC | 310 | 957 | 1160 | 871
Cc1ccc(-c2nnc(C3=C(Cl)c4cc(C)c(C)cc4CCC3)o2)cc1 | 679 | 3880 | 1760 | 2470
Cc1cc2c(cc1C)C(Cl)=C(c1nnc(-c3ccccc3)o1)CCC2 | 4680 | 4120 | 2760 | 1960
Cc1cc2c(cc1C)C(Cl)=C(C(=O)NNC(=S)Nc1ccccc1)CCC2 | 471 | 928 | 3140 | 759
COc1ccc([N+](=O)[O-])c(-c2nnc(C3=C(Cl)c4ccccc4CCC3)o2)c1OC | 2830 | 7230 | 8280 | 5360
Cc1cc2c(cc1C)C(Cl)=C(c1nnc(-c3cccc(Cl)c3)o1)CCC2 | 5940 | 4570 | 3310 | 1970
COc1cc(-c2nnc(C3=C(Cl)c4ccccc4CCC3)o2)cc(OC)c1OC | 1730 | 729 | 3320 | 4570
